Here are results for seven molecules from patent US20100216779A1 (GLAXOSMITHKLINE LLC, priority 2007, published 2010).

Where only a bound is given, the exact number is not on record here.

Holding throughout (type): cell-based
In assay [1] the target is T1, IR (NIH-3T3 cells over expressing human IGF-1R or IR) (Homo sapiens, UniProt P06213).
T1 construct: expressed in transfected cells; host or cells: NIH-3T3 (mouse fibroblasts)
In words: IR cellular autophosphorylation (DELFIA). The conditions noted are these: NIH-3T3 cells over expressing IR, insulin stimulated. Put shortly: (§1)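 Autophosphorylation of IGF-1R or IR is measured in NIH-3T3 lines overexpressing each human receptor after 2 h compound pretreatment and a 15 min ligand challenge (IGF-1 30 ng/mL; insulin 3 ug/mL). Fluorescence is normalised to 100% stimulation.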

Assay [2] concerns NCI-H929 (multiple myeloma). In words: Inhibition of cell proliferation, CellTiter-Glo, NCI-H929. The following applies: Homo sapiens, 72 h. Put shortly: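 Cells were grown in medium with 10% FBS at 37° C, 5% CO2. Cell number was read as CellTiter-Glo luminescence (cellular ATP), with untreated wells as control.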
For assay [3], the target named is T2, human IGF-1R (NIH-3T3 cells over expressing human IGF-1R) (Homo sapiens, UniProt P08069).
T2 construct: expressed in transfected cells; host or cells: NIH-3T3 (mouse fibroblasts)
In words: IGF-1R cellular autophosphorylation (DELFIA). The conditions noted are these: IGF-1 stimulated. An outline of the steps: as §1

Assay [4] concerns COLO205 (colon). As to the kind of experiment: Inhibition of cell proliferation, CellTiter-Glo, COLO205. The following applies: Homo sapiens, COLO 205, 72 h. Put shortly:
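Exponentially growing COLO205 cells in medium with 10% FBS were plated below 2000 cells/well at 37 °C, 5% CO2. Untreated wells served as controls.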

T1 sequence (P06213 28-1382): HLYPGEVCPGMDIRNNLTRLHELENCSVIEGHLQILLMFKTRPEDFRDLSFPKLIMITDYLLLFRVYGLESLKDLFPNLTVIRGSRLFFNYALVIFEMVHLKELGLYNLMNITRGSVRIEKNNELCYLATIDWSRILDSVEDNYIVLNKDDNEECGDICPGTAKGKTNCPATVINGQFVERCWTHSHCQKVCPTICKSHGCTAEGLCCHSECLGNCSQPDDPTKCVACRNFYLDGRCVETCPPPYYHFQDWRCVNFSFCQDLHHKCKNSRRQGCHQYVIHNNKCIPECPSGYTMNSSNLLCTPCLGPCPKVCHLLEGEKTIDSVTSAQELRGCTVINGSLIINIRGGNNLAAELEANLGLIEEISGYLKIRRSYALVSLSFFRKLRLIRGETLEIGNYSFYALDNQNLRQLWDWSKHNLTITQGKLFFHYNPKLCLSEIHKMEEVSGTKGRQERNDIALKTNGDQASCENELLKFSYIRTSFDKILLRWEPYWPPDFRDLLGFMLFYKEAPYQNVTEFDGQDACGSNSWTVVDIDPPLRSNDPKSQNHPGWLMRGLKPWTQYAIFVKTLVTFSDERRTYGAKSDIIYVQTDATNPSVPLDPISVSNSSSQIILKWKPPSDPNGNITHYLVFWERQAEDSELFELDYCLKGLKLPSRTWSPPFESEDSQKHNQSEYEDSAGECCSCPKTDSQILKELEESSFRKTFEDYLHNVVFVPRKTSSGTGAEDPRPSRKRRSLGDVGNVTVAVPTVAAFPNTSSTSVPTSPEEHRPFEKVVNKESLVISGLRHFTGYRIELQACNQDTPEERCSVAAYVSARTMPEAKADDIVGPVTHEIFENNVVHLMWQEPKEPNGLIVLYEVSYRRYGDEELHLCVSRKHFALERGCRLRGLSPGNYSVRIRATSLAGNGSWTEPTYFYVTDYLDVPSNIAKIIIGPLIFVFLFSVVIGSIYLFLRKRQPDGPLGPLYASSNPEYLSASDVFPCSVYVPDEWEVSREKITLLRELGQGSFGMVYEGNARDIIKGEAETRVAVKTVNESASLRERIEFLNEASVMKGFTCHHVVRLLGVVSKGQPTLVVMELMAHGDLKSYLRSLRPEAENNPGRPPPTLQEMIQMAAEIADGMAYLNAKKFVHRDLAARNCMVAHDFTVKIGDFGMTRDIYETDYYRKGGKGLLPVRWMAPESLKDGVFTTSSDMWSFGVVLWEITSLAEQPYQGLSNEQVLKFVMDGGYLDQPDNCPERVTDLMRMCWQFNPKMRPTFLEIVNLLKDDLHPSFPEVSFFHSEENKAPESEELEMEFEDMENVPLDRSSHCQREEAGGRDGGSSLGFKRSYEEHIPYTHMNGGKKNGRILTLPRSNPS
T2 sequence (P08069 31-1367): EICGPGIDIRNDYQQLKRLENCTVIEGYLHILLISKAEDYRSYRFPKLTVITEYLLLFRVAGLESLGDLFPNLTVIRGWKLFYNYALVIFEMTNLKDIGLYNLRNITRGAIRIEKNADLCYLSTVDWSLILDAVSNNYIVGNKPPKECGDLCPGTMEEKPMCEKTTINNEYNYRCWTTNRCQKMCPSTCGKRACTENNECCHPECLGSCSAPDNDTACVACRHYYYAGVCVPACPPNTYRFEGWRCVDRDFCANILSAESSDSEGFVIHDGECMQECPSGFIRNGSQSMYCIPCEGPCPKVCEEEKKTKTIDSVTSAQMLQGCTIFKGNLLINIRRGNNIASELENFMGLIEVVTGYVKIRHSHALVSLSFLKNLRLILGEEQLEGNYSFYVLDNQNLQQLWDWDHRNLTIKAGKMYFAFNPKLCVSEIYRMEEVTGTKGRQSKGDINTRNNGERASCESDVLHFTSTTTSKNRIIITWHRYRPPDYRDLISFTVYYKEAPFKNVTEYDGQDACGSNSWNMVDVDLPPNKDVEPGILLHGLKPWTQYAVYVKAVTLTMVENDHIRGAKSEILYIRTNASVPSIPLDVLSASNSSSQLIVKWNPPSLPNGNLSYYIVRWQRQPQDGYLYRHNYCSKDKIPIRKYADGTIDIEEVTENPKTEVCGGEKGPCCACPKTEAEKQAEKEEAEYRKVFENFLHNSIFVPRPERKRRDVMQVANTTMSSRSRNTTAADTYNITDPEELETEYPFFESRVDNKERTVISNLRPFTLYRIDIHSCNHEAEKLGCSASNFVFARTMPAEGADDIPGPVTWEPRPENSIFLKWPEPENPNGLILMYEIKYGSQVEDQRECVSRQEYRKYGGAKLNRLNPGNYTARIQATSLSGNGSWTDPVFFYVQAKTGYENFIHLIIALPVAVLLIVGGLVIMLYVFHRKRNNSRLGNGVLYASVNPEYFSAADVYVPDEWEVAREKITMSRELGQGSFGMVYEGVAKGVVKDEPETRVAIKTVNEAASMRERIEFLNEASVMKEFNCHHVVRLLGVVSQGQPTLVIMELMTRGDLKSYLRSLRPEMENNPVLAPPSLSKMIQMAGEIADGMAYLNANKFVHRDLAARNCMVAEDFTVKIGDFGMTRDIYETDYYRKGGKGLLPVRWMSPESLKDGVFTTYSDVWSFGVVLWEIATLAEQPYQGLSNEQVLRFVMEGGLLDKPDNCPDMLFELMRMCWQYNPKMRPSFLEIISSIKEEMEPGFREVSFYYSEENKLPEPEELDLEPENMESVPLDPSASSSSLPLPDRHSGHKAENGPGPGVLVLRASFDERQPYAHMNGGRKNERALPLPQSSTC

On to `CCN1CCN(C2CCN(c3ccc(Nc4nccc(-c5c(-c6cccc(C(=O)Nc7c(F)cccc7F)c6)nc6ccccn56)n4)c(OC)c3)CC2)CC1` [Example 64, N-(2,6-difluorophenyl)-3-[3-(2-{[4-[4-(4-ethyl-1-piperazinyl)-1-piperidinyl]-2-(methyloxy)phenyl]amino}-4-pyrimidinyl)imidazo[1,2-a]pyridin-2-yl]benzamide], for which the IC50 in assay [1] was less than 100 nM; in assay [2], less than 250 nM; in assay [3], 100 to 500 nM; in assay [4], 250 to 1000 nM.

Take `CCOc1ccc(-c2nc3ccccn3c2-c2ccnc(Nc3cc(C)c(C4CCN(CCS(C)(=O)=O)CC4)cc3OC)n2)cc1C(=O)Nc1c(F)cccc1F` [Example 164, N-(2,6-difluorophenyl)-2-(ethyloxy)-5-(3-{2-[(5-methyl-2-(methyloxy)-4-{1-[2-(methylsulfonyl)ethyl]-4-piperidinyl}phenyl)amino]-4-pyrimidinyl}imidazo[1,2-a]pyridin-2-yl)benzamide]: the IC50 in assay [1] was less than 100 nM; in assay [2], less than 250 nM; in assay [3], less than 100 nM; in assay [4] it was less than 250 nM.

As for `CCOc1ccc(-c2nc3ccccn3c2-c2ccnc(Nc3ccc(N4CCC(N5CCN(CCF)CC5)CC4)cc3OC)n2)cc1C(=O)Nc1c(F)cccc1F` [Example 63, N-(2,6-difluorophenyl)-2-(ethyloxy)-5-[3-(2-{[4-{4-[4-(2-fluoroethyl)-1-piperazinyl]-1-piperidinyl}-2-(methyloxy)phenyl]amino}-4-pyrimidinyl)imidazo[1,2-a]pyridin-2-yl]benzamide], the IC50 in assay [1] is less than 100 nM; in assay [2], less than 250 nM; in assay [3], less than 100 nM; in assay [4] it was 250 to 1000 nM.

Regarding `CCOc1cc(N2CCN(CCS(C)(=O)=O)CC2)ccc1Nc1nccc(-c2c(-c3ccc(OCC)c(C(=O)Nc4c(F)cccc4F)c3)nc3ccccn23)n1` [Example 144, N-(2,6-difluorophenyl)-2-(ethyloxy)-5-(3-{2-[(2-(ethyloxy)-4-{4-[2-(methylsulfonyl)ethyl)-1-piperazinyl}phenyl)amino]-4-pyrimidinyl}imidazo[1,2-a]pyridin-2-yl)benzamide], the IC50 was less than 100 nM in assay [1], less than 250 nM in assay [2], less than 100 nM in assay [3] and less than 250 nM in assay [4].

For the molecule `CCOc1cc(N2CCN(C(C)C)CC2)ccc1Nc1nccc(-c2c(-c3cccc(C(=O)Nc4c(F)cccc4F)c3)nc3ccccn23)n1` [Example 171, N-(2,6-difluorophenyl)-3-{3-[2-({2-(ethyloxy)-4-[4-(1-methylethyl)-1-piperazinyl]phenyl}amino)-4-pyrimidinyl]imidazo[1,2-a]pyridin-2-yl}benzamide], the IC50 in assay [1] is less than 100 nM; in assay [2], 250 to 1000 nM; in assay [3] it was less than 100 nM; in assay [4] it was 250 to 1000 nM.

Take `CCCN1CCN(c2ccc(Nc3nccc(-c4c(-c5ccc(OCC)c(C(=O)Nc6c(F)cccc6F)c5)nc5ccccn45)n3)c(OC)c2)CC1` [Example 178, N-(2,6-difluorophenyl)-2-(ethyloxy)-5-[3-(2-{[2-(methyloxy)-4-(4-propyl-1-piperazinyl)phenyl]amino}-4-pyrimidinyl)imidazo[1,2-a]pyridin-2-yl]benzamide]: the IC50 in assay [1] is less than 100 nM; in assay [2], less than 250 nM; in assay [3], less than 100 nM; in assay [4], 250 to 1000 nM.

As to `COc1cc(N2CCC(N3CCN(CCF)CC3)CC2)c(C)cc1Nc1nccc(-c2c(-c3cccc(C(=O)Nc4c(F)cccc4F)c3)nc3ccccn23)n1` [Example 113, N-(2,6-difluorophenyl)-3-[3-(2-{[4-{4-[4-(2-fluoroethyl)-1-piperazinyl]-1-piperidinyl}-5-methyl-2-(methyloxy)phenyl]amino]-4-pyrimidinyl)imidazo[1,2-a]pyridin-2-yl]benzamide], the IC50 in assay [1] was less than 100 nM; in assay [2], 250 to 1000 nM; in assay [3], less than 100 nM; in assay [4] it was greater than 1000 nM.
